The values below come from US6943181B2, “Use of substituted gamma-lactone compounds as pharmaceutical preparations” (Grunenthal GmbH, priority 2001, dated 2005).

The target in this assay is T1, nitrogen monoxide synthase (NO synthase) (Rattus norvegicus, UniProt P29476).
T1 construct: the supernatant was then decanted off and frozen in portions; from tissue; host or cells: rat cerebellum (homogenate, 20,000 g supernatant)
The experiment in a line: HTS-NOS assay (nitrogen monoxide synthase assay). Format: biochemical. As to conditions: compound at 10 μM; enzyme preparation from rat cerebella; [3H]-arginine substrate. The text has this: This assay makes it possible to determine the percentage inhibition of NO synthase by a compound of the general formula I used according to the invention by measuring NOS activity on exposure to the compound. NO synthase is here mixed under suitable conditions together with radioactively labelled arginine and the particular compound of the general formula I. After termination of the NO formation reaction at a predetermined time, the quantity of unconverted arginine is directly or indirectly determined. […] This assay may be carried out at follows: • (a) Incubation of the NO synthase with labelled arginine as the substrate in a reaction vessel, • (b) Separation of the labelled arginine from the labelled citrulline optionally arising as a product of the enzymatic reaction at a time at which the concentration of citrulline is rising, • (c) Measurement of the quantity of arginine separated in each case.
Separation is performed by means of a filter plate membrane.
Radioactive arginine is used as the substrate in this HTS-NOS assay. Depending on the type of microtitre plate (MTP), the assay volume may be selected in the range between 25 μl and 250 μl. Depending on the enzyme source used, cofactors and coenzymes are added. The batches are incubated in this microtitre plate (assay MTP) according to step (a) at room temperature and, depending on the enzyme activity used (units), lasts between 5 and 60 minutes. On completion of incubation (step (a)), the plate is placed in a cell harvester, which is equipped with an MTP which has a cation exchange membrane as a filter bottom (filter MTP). All the batches from the assay MTP are transferred into this filter MTP and suction filtered through a cation exchange filter plate, a paper filter loaded with phosphate groups. The filter MTP is then washed with buffer or water. This procedure binds the remaining substrate arginine onto the cation exchanger, while the enzymatically formed radioactive citrulline is quantitatively eluted. Once the filter MTP has been dried and scintillation liquid added, the bound arginine can be counted in the scintillation counter. Low radioactivity indicates an uninhibited NOS reaction. An inhibited enzyme reaction means that the radioactive arginine has not been converted. This means that there is a high level of radioactivity on the filter.
• Arginine, L-[2,3,4-^3H]-monohydrochloride; item no. […] The pH value of the buffer was adjusted to 7.4 at 25° C. • Washing medium: H2O Enzyme Preparation
Rat cerebella were used as the starting tissue. The animals were stunned and killed, the brain tissue, the cerebellum, was dissected out, 1 ml of enzyme preparation buffer (4° C.) was added per cerebellum, and the tissue was disrupted for 1 min at 6000 rpm in a Polytron homogeniser. The mixture was then centrifuged at 4° C. for 15 min at 20,000 g, and the supernatant was then decanted off and frozen in portions at −80° C. (discarding the precipitate).
96-Well MTPs with a well capacity of ≦250 μl were used Pipetting sequence: see table 1:
Once the pipetting operation was complete, a lid was laid on top of this MTP (assay MTP). Incubation at 25° C. (room temperature (RT)) for 5-60 min, depending on the quantity and activity of the enzyme used.
The contents of the assay MTP were then transferred with the assistance of a 96 well cell harvester into a 96 well cation exchange MTP (filter MTP) and suction filtered. A single washing with […] of H2O (from a trough) was then performed.
The plate was then dried for 1 h at 60° C. in a drying cabinet. The bottom of the filter MTP was then carefully sealed from beneath with a “back seal”. 35 μl of scintillating material were then pipetted into each well. The top of the plate was also sealed with a “top seal”. After 1 hour's waiting time, the plate was assessed on the β-counter.

Turning to `Cc1cc(C)nc(NC2CC(C)(c3ccc(C(C)C)cc3)OC2=O)c1` (stereo not drawn) [Example 28, 3-(4,6-Dimethyl-pyridin-2-ylamino)-5-(4-isopropyl-phenyl)-5-methyl-dihydro-furan-2-one], the inhibition at 10 µM amounted to 68%.
Compound `Cc1cc(C)nc(NC2CC(C)(c3cc4ccccc4o3)OC2=O)c1` (stereo not drawn) [Example 29, 5-Benzofuran-2-yl-3-(4,6-dimethyl-pyridin-2-ylamino)-5-methyl-dihydro-furan-2-one] registered an inhibition at 10 µM of 40%.
Same read-out and setting: under `Cc1ccnc(NC2CC(C)(c3cc4ccccc4s3)OC2=O)c1` (stereo not drawn) [Example 30, 5-Benzo[b]thiophen-2-yl-5-methyl-3-(4-methyl-pyridin-2-ylamino)-dihydro-furan-2-one] stands 41%.
On to `Cc1ccnc(NC2CC(C)(c3cc4ccccc4o3)OC2=O)c1` (stereo not drawn) [Example 31, 5-Benzofuran-2-yl-5-methyl-3-(4-methyl-pyridin-2-ylamino)-dihydro-furan-2-one], for which 10 µM produced 44% inhibition.
In turn, `CC1(c2ccc3c(c2)OCO3)CC(Nc2n[nH]cc2C#N)C(=O)O1` (stereo not drawn) [Example 32, 3-(5-Benzo[1,3]dioxol-5-yl-5-methyl-2-oxo-tetrahydro-furan-3-ylamino)-1H-pyrazole-4-carbonitrile] returned an inhibition at 10 µM of 41%.
In turn, `CCOC(=O)c1c[nH]nc1NC1CC(C)(c2ccc3c(c2)OCO3)OC1=O` (stereo not drawn) [Example 33, 3-(5-Benzo[1,3]dioxol-5-yl-5-methyl-2-oxo-tetrahydro-furan-3-ylamino)-1H-pyrazole-4-carboxylic acid ethyl ester] displayed an inhibition at 10 µM of 45%.
`CC1(c2ccc3c(c2)OCO3)CC(Nc2ncccc2[N+](=O)[O-])C(=O)O1` (stereo not drawn) [Example 34, 5-Benzo[1,3]dioxol-5-yl-5-methyl-3-(3-nitro-pyridin-2-ylamino)-dihydro-furan-2-one] displayed an inhibition at 10 µM of 40%.
As to `Cc1cc(C)nc(NC2CC(C)(c3ccc4c(c3)CCCC4)OC2=O)c1` (stereo not drawn) [Example 35, 3-(4,6-Dimethyl-pyridin-2-ylamino)-5-methyl-5-(5,6,7,8-tetrahydro-naphthalen-2-yl)-dihydro-furan-2-one], the inhibition at 10 µM was 42%.
Compound `Cc1cc(C)nc(NC2CC(C)(c3ccc4ccccc4c3)OC2=O)c1` (stereo not drawn) [Example 36, 3-(4,6-Dimethyl-pyridin-2-ylamino)-5-methyl-5-naphthalen-2-yl-dihydro-furan-2-one] returned an inhibition at 10 µM of 65%.
On to `Cc1ccnc(NC2CC(C)(c3ccc4c(c3)OCO4)OC2=O)c1` (stereo not drawn) [Example 37, 5-Benzo[1,3]dioxol-5-yl-5-methyl-3-(4-methyl-pyridin-2-ylamino)-dihydro-furan-2-one], for which testing at 10 µM gave an inhibition of 50%.
For `Cc1ccnc(NC2CC(C)(c3ccc4c(c3)CCCC4)OC2=O)c1` (stereo not drawn) [Example 38, 5-Methyl-3-(4-methyl-pyridin-2-ylamino)-5-(5,6,7,8-tetrahydro-naphthalen-2-yl)-dihydro-furan-2-one], the inhibition at 10 µM was 55%.
`Cc1ccc(NC2CC(C)(c3ccc4c(c3)OCO4)OC2=O)nc1` (stereo not drawn) [Example 39, 5-Benzo[1,3]dioxol-5-yl-5-methyl-3-(5-methyl-pyridin-2-ylamino)-dihydro-furan-2-one] had an inhibition at 10 µM of 44%.
Take `Cc1cccc(NC2CC(C)(c3ccc4c(c3)OCO4)OC2=O)n1` (stereo not drawn) [Example 40, 5-Benzo[1,3]dioxol-5-yl-5-methyl-3-(6-methyl-pyridin-2-ylamino)-dihydro-furan-2-one]: the inhibition at 10 µM is 53%.
Still for that read-out and setting: the value for `CC1(c2ccc3c(c2)CCCC3)CC(Nc2ncc(Br)cc2[N+](=O)[O-])C(=O)O1` (stereo not drawn) [Example 41, 3-(5-Bromo-3-nitro-pyridin-2-ylamino)-5-methyl-5-(5,6,7,8-tetrahydro-naphthalen-2-yl)-dihydro-furan-2-one] was 53%.
`CC(C)C1(c2ccccc2)CC(Nc2ncc(Br)cc2[N+](=O)[O-])C(=O)O1` (stereo not drawn) [Example 42, 3-(5-Bromo-3-nitro-pyridin-2-ylamino)-5-isopropyl-5-phenyl-dihydro-furan-2-one] registered an inhibition at 10 µM of 41%.
Regarding `CC(C)C1(c2ccccc2)CC(Nc2ccc([N+](=O)[O-])cn2)C(=O)O1` (stereo not drawn) [Example 43, 5-Isopropyl-3-(5-nitro-pyridin-2-ylamino)-5-phenyl-dihydro-furan-2-one], the inhibition at 10 µM was found to be 45%.
Compound `CC1(c2ccc3ccccc3c2)CC(Nc2ccc([N+](=O)[O-])cn2)C(=O)O1` (stereo not drawn) [Example 44, 5-Methyl-5-naphthalen-2-yl-3-(5-nitro-pyridin-2-ylamino)-dihydro-furan-2-one] displayed an inhibition at 10 µM of 47%.
Regarding `CC(C)C1(c2ccccc2)CC(Nc2ncccn2)C(=O)O1` (stereo not drawn) [Example 45, 5-Isopropyl-5-phenyl-3-(pyrimidin-2-ylamino)-dihydro-furan-2-one], 10 µM produced 58% inhibition.
In turn, `CCOC(=O)c1c[nH]nc1NC1CC(C)(c2ccc(I)cc2)OC1=O` (stereo not drawn) [Example 46, 3-[5-(4-Iodo-phenyl)-5-methyl-2-oxo-tetrahydro-furan-3-ylamino]-1H-pyrazole-4-carboxylic acid ethyl ester] gave an inhibition at 10 µM of 44%.
Take `CC1(c2ccc(Br)cc2)CC(Nc2ccc(Br)cn2)C(=O)O1` (stereo not drawn) [Example 47, 5-(4-Bromo-phenyl)-3-(5-bromo-pyridin-2-ylamino)-5-methyl-dihydro-furan-2-one]: the inhibition at 10 µM turned out to be 54%.
`Cc1cnc(NC2CC(C)(c3cccc4ccccc34)OC2=O)c(Br)c1` (stereo not drawn) [Example 48, 3-(3-Bromo-5-methyl-pyridin-2-ylamino)-5-methyl-5-naphthalen-l-yl-dihydro-furan-2-one]: the “NOS (% inhibition)” value turned out to be 45%.
With `CCCc1cccc(NC2CC(C)(c3cccc4ccccc34)OC2=O)n1` (stereo not drawn) [Example 49, 5-Methyl-5-naphthalen-l-yl-3-(6-propyl-pyridin-2-ylamino)-dihydro-furan-2-one], the “NOS (% inhibition)” value is given as 53%.
`CCCc1cccc(NC2CC(C)(c3cccc(Cl)c3)OC2=O)n1` (stereo not drawn) [Example 50, 5-(3-Chloro-phenyl)-5-methyl-3-(6-propyl-pyridin-2-ylamino)-dihydro-furan-2-one] came in with an inhibition at 10 µM of 61%.
For the compound `Cc1ccnc(NC2CC(C)(c3cccc(Cl)c3)OC2=O)c1[N+](=O)[O-]` (stereo not drawn) [Example 51, 5-(3-Chloro-phenyl)-5-methyl-3-(4-methyl-3-nitro-pyridin-2-ylamino)-dihydro-furan-2-one], testing at 10 µM gave an inhibition of 50%.
For the compound `Cc1ccnc(NC2CC(C)(c3ccc(Br)cc3)OC2=O)c1[N+](=O)[O-]` (stereo not drawn) [Example 52, 5-(4-Bromo-phenyl)-5-methyl-3-(4-methyl-3-nitro-pyridin-2-ylamino)-dihydro-furan-2-one], the inhibition at 10 µM was determined as 43%.
Still for that read-out and setting: the value for `Cc1nc(NC2CC(C)(c3ccc(I)cc3)OC2=O)ccc1Br` (stereo not drawn) [Example 54, 3-(5-Bromo-6-methyl-pyridin-2-ylamino)-5-(4-iodo-phenyl)-5-methyl-dihydro-furan-2-one] was 70%.
`CC1(c2ccc(I)cc2)CC(Nc2ncccc2OCc2ccccc2)C(=O)O1` (stereo not drawn) [Example 55, 3-(3-Benzyloxy-pyridin-2-ylamino)-5-(4-iodo-phenyl)-5-methyl-dihydro-furan-2-one] gave an inhibition at 10 µM of 44%.
`CC1(c2ccc(Br)cc2)CC(Nc2ncccc2OCc2ccccc2)C(=O)O1` (stereo not drawn) [Example 56, 3-(3-Benzyloxy-pyridin-2-ylamino)-5-(4-bromo-phenyl)-5-methyl-dihydro-furan-2-one] gave an inhibition at 10 µM of 59%.
`Cc1cc(C)nc(NC2CC(C)(c3ccc(I)cc3)OC2=O)c1` (stereo not drawn) [Example 57, 3-(4,6-Dimethyl-pyridin-2-ylamino)-5-(4-iodo-phenyl)-5-methyl-dihydro-furan-2-one] displayed an inhibition at 10 µM of 72%.
The compound `Cc1cc(C)nc(NC2CC(C)(c3cccc(Cl)c3)OC2=O)c1` (stereo not drawn) [Example 58, 5-(3-Chloro-phenyl)-3-(4,6-dimethyl-pyridin-2-ylamino)-5-methyl-dihydro-furan-2-one] displayed an inhibition at 10 µM of 73%.

A word on the inhibition: it is the drop in the measured response relative to a control, in per cent.
